≈ marks a conversion by molar mass, not a printed value. Where two headings read alike, the source gives them in different places.
What was measured:
Assay type in all cases: cell-based
[1] = tested on: Anaerococcus tetradius; experiment: Agar dilution MIC (CLSI), Anaerococcus tetradius vaginal isolates; conditions: for MIC: read-out: Minimal Inhibitory Concentration (MIC); for Number of strains with indicated MIC: 21 samples
[2] = tested on: M. curtisii; experiment: Agar dilution MIC (CLSI), M. curtisii vaginal isolates; conditions: for Number of strains with indicated MIC: 14 samples
[3] = tested on: Prevotella timonensis; experiment: Agar dilution MIC (CLSI), Prevotella timonensis vaginal isolates; conditions: for MIC: read-out: Minimal Inhibitory Concentration (MIC); for Number of strains with indicated MIC: 33 samples
[4] = Anaerococcus tetradius, # tested 21
[5] = Hoylesella timonensis, # tested 33

CO[C@H]1/C=C/O[C@@]2(C)Oc3c(C)c(O)c4c(O)c(c5c(nc6cc(C)ccn65)c4c3C2=O)NC(=O)/C(C)=C\C=C\[C@H](C)[C@H](O)[C@@H](C)[C@@H](O)[C@@H](C)[C@H](OC(C)=O)[C@@H]1C [Rifaximin]
MIC ([1]; Anaerococcus tetradius, isolate 601103V 21): 0.06 µg/mL (≈ 0.0763 µM)
MIC ([1]; Anaerococcus tetradius, isolate 601175V I): 0.125 µg/mL (≈ 0.159 µM)
MIC ([1]; Anaerococcus tetradius, isolate 601202V 11): 0.06 µg/mL (≈ 0.0763 µM)
MIC ([1]; Anaerococcus tetradius, isolate 601212V 14): 0.06 µg/mL (≈ 0.0763 µM)
MIC ([1]; Anaerococcus tetradius, isolate 601221V 12): 0.00375 µg/mL (≈ 0.00477 µM)
MIC ([1]; Anaerococcus tetradius, isolate 601222V 15): 0.06 µg/mL (≈ 0.0763 µM)
MIC ([1]; Anaerococcus tetradius, isolate 601242V 17): 0.06 µg/mL (≈ 0.0763 µM)
MIC ([1]; Anaerococcus tetradius, isolate 601256V 9): 0.06 µg/mL (≈ 0.0763 µM)
MIC ([1]; Anaerococcus tetradius, isolate 601287V V): 0.06 µg/mL (≈ 0.0763 µM)
MIC ([1]; Anaerococcus tetradius, isolate 601305V J): 0.015 µg/mL (≈ 0.0191 µM)
MIC ([1]; Anaerococcus tetradius, isolate 601326V H): 0.06 µg/mL (≈ 0.0763 µM)
MIC ([1]; Anaerococcus tetradius, isolate 601340V 25): 0.06 µg/mL (≈ 0.0763 µM)
MIC ([1]; Anaerococcus tetradius, isolate 601342V N): 0.06 µg/mL (≈ 0.0763 µM)
MIC ([1]; Anaerococcus tetradius, isolate 601368V 42): 0.06 µg/mL (≈ 0.0763 µM)
MIC ([1]; Anaerococcus tetradius, isolate 601369V 12): 0.03 µg/mL (≈ 0.0382 µM)
MIC ([1]; Anaerococcus tetradius, isolate 601379V 25): 0.06 µg/mL (≈ 0.0763 µM)
MIC ([1]; Anaerococcus tetradius, isolate 601401V T): 0.06 µg/mL (≈ 0.0763 µM)
MIC ([1]; Anaerococcus tetradius, isolate 601429V 15): 0.015 µg/mL (≈ 0.0191 µM)
MIC ([1]; Anaerococcus tetradius, isolate 601450V 22): 0.06 µg/mL (≈ 0.0763 µM)
MIC ([1]; Anaerococcus tetradius, isolate 602375V 22): 0.015 µg/mL (≈ 0.0191 µM)
MIC50 [1, 4]: 0.06 µg/mL (≈ 0.0763 µM)
MIC90 [1, 4]: 0.06 µg/mL (≈ 0.0763 µM)
Number of strains with indicated MIC ([1]; MIC 0.00375 μg/ml): 1
Number of strains with indicated MIC ([1]; MIC 0.015 μg/ml): 3
Number of strains with indicated MIC ([1]; MIC 0.03 μg/ml): 1
Number of strains with indicated MIC ([1]; MIC 0.06 μg/ml): 15
Number of strains with indicated MIC ([1]; MIC […]): 1
Number of strains with indicated MIC ([2]; MIC 0.015 μg/ml): 12
Number of strains with indicated MIC ([2]; MIC 0.03 μg/ml): 2
MIC ([2]; individual isolates recovered from the vagina 2009-2012, one line per isolate (id in c0/c1 of the row), read-out: Minimal Inhibitory Concentration (MIC)): 0.015 µg/mL (≈ 0.0191 µM)
MIC Range ([3]; # tested 33): 0.00375 to 0.06 µg/mL
MIC ([3]; Hoylesella timonensis, isolate 301212 10): 0.00375 µg/mL (≈ 0.00477 µM)
MIC ([3]; Hoylesella timonensis, isolate 601080 5): 0.0075 µg/mL (≈ 0.00954 µM)
MIC ([3]; Hoylesella timonensis, isolate 601088 15): 0.015 µg/mL (≈ 0.0191 µM)
MIC ([3]; Hoylesella timonensis, isolate 601093 24): 0.015 µg/mL (≈ 0.0191 µM)
MIC ([3]; Hoylesella timonensis, isolate 601097 S): 0.015 µg/mL (≈ 0.0191 µM)
MIC ([3]; Hoylesella timonensis, isolate 601098 B): 0.015 µg/mL (≈ 0.0191 µM)
MIC ([3]; Hoylesella timonensis, isolate 601157 19): 0.015 µg/mL (≈ 0.0191 µM)
MIC ([3]; Hoylesella timonensis, isolate 601167 13): 0.06 µg/mL (≈ 0.0763 µM)
MIC ([3]; Hoylesella timonensis, isolate 601170 13): 0.015 µg/mL (≈ 0.0191 µM)
MIC ([3]; Hoylesella timonensis, isolate 601175 J): 0.015 µg/mL (≈ 0.0191 µM)
MIC ([3]; Hoylesella timonensis, isolate 601178 19): 0.015 µg/mL (≈ 0.0191 µM)
MIC ([3]; Hoylesella timonensis, isolate 601194 9B): 0.0075 µg/mL (≈ 0.00954 µM)
MIC ([3]; Hoylesella timonensis, isolate 601214 A): 0.015 µg/mL (≈ 0.0191 µM)
MIC ([3]; Hoylesella timonensis, isolate 601226 C): 0.015 µg/mL (≈ 0.0191 µM)
MIC ([3]; Hoylesella timonensis, isolate 601234 B): 0.015 µg/mL (≈ 0.0191 µM)
MIC ([3]; Hoylesella timonensis, isolate 601245 16): 0.015 µg/mL (≈ 0.0191 µM)
MIC ([3]; Hoylesella timonensis, isolate 601252 B): 0.015 µg/mL (≈ 0.0191 µM)
MIC ([3]; Hoylesella timonensis, isolate 601255 17): 0.015 µg/mL (≈ 0.0191 µM)
MIC ([3]; Hoylesella timonensis, isolate 601266 18): 0.015 µg/mL (≈ 0.0191 µM)
MIC ([3]; Hoylesella timonensis, isolate 601278 12): 0.015 µg/mL (≈ 0.0191 µM)
MIC ([3]; Hoylesella timonensis, isolate 601281 22): 0.015 µg/mL (≈ 0.0191 µM)
MIC ([3]; Hoylesella timonensis, isolate 601287 H): 0.015 µg/mL (≈ 0.0191 µM)
MIC ([3]; Hoylesella timonensis, isolate 601293 13): 0.015 µg/mL (≈ 0.0191 µM)
MIC ([3]; Hoylesella timonensis, isolate 601311 B): 0.015 µg/mL (≈ 0.0191 µM)
MIC ([3]; Hoylesella timonensis, isolate 601367 E): 0.015 µg/mL (≈ 0.0191 µM)
MIC ([3]; Hoylesella timonensis, isolate 601370 13): 0.03 µg/mL (≈ 0.0382 µM)
MIC ([3]; Hoylesella timonensis, isolate 601388 S): 0.015 µg/mL (≈ 0.0191 µM)
MIC ([3]; Hoylesella timonensis, isolate 601401 J): 0.015 µg/mL (≈ 0.0191 µM)
MIC ([3]; Hoylesella timonensis, isolate 601411 S): 0.015 µg/mL (≈ 0.0191 µM)
MIC ([3]; Hoylesella timonensis, isolate 601414 O): 0.03 µg/mL (≈ 0.0382 µM)
MIC ([3]; Hoylesella timonensis, isolate 601422 39): 0.015 µg/mL (≈ 0.0191 µM)
MIC ([3]; Hoylesella timonensis, isolate 601429 11): 0.015 µg/mL (≈ 0.0191 µM)
MIC ([3]; Hoylesella timonensis, isolate 601459 21): 0.015 µg/mL (≈ 0.0191 µM)
MIC50 [3, 5]: 0.015 µg/mL (≈ 0.0191 µM)
MIC90 [3, 5]: 0.015 µg/mL (≈ 0.0191 µM)
Number of strains with indicated MIC ([3]; MIC 0.00375 μg/ml): 1
Number of strains with indicated MIC ([3]; MIC 0.0075 μg/ml): 2
Number of strains with indicated MIC ([3]; MIC 0.015 μg/ml): 27
Number of strains with indicated MIC ([3]; MIC 0.03 μg/ml): 2
Number of strains with indicated MIC ([3]; MIC 0.06 μg/ml): 1
Susceptible ([3]; number (%) of isolates, # tested 33): 33 (100) μg/ml
